The values below come from patent EP0608419A1, “TRANSOCULAR PREPARATION” (FUJISAWA PHARMACEUTICAL CO., LTD., priority 1991, dated 1993).

Where two headings read alike, the source gives them in different places.

A short description of data set [1]: Concentration of test compound in eye tissue and blood after transocular administration of ophthalmic solution (EIA). In kind it is in vivo, JW (clean) strain female rabbits. As to conditions: topical or ocular, read-out: Mean concentration in tissue ± S.E. The protocol:
The resultant preparation was filled in an instillator.
(§1) c The experiment was carried out using JW (clean) strain female rabbits (body weight: 2.3 to 2.6 kg), each test group containing three rabbits. In this experiment, the rabbits were allowed to feed themselves and drink water freely both before and after each administration.
In case of transocular administration of ophthalmic solution, the rabbits were fixed on the cangue fixer and applied to each eye with one drop (about 0.05 ml) of the above ophthalmic solution using an instillator. The administration was repeated five times at 5-minute intervals. After the final administration, the rabbits were brought back to their cage. In these administrations, total dosage was 1 mg/rabbit. At 30 minutes after the final administration, blood was collected from the ear vein of the rabbits. Immediately, the rabbits were anesthetized by injection of "Nembutal" (Trademark) into the ear vein to bleed to death by cutting off their head and then the eyeballs were taken out therefrom.
(§2) The eyeballs taken out were washed with physiological saline solution under ice-cooling, and subsequently divided into various parts (i.e. cornea, aqueous humor in anterior chamber of eye, iris, lens, vitreum, retinochoroid and sclera). After measuring the weight of each part, phosphate buffer solution (pH 7.4) was added thereto and then the parts were homogenized using a glass-made "Potter-type homogenizer" (Trademark).
(§3) The determination of a concentration of the test compound in each sample was carried out by the two-step Enzyme-linked immunosorbent assay (EIA) using purified polyclonal antibody against the test compound.

The nature of data set [2]: Concentration of test compound in eye tissue and blood after continuous subcutaneous administration by implanted mini-pump (EIA). In kind it is in vivo, JW (clean) strain female rabbits. As to conditions: sc, 2.5 mg/animal/day, read-out: Mean concentration in tissue ± S.E. The protocol: as §1
On the other hand, in case of continuous subcutaneous administration, after the rabbits were anesthetized by injection of "Nembutal" (Trademark, 0.5 to 0.6 ml/kg i.v.), they were clipped their back side hair and then were incised their clipped parts about 3 cm long with a surgical knife. […] Subsequently, the incised parts of the rabbits were sutured with silk thread, and then the rabbits were brought back to their cage. In this case, total dosage was 2.5 mg/rabbit/day. The day when the mini-pump was implanted was defined as "Day 0". On Day 5, the rabbits were anesthetized by injection of "Nembutal" (Trademark) into the ear vein to bleed to death, and then the eyeballs were taken out therefrom. In this experiment, blood was collected for measuring a concentration of the test compound in blood on each Day 1, 4 and 5.
as §2, §3

The subject of data set [3] is intraocular vascularization. Description: Suppression of induced intraocular vascularization (cupric chloride pellet and aminoadipic acid) by eye drops, histological observation. The data set is classed as in vivo, rabbits (Dutch). As to conditions: 2 mg/ml in isotonic phosphate buffer solution (pH 8), eye drops twice a day for 12 days; both eyes of five rabbits. The protocol:
Both eyes of five rabbits (Dutch) were used for this experiment. Into the vitreum of the rabbits, 0.2 ml of sterilized air was injected. […] At the same time as transplantation, 1 mg of aminoadipic acid dissolved in 0.2 ml of physiological saline solution was injected into the vitreum, by which vascularization in the eyes (i.e. in the vitreum) was induced. Twenty-four hours later, isotonic phosphate buffer solution (pH 8, 2 mg/ml) which contained the same test compound used in Example 1 was administered drop by drop to each rabbit. The same administration was repeated twice a day for consecutive 12 days. After the final administration on the 12th day, the eyeballs were taken out therefrom and observed histologically to find whether the vascularization was suppressed or not.

In the case of `CNC(=O)OC1CCC2(CO2)C(C2(C)OC2CC=C(C)C)C1OC` (stereo not drawn) [test compound, 6-Methylcarbamoyloxy-5-methoxy-4-[2-methyl-3-(3-methyl-2-butenyl)oxiranyl]-1-oxaspiro[2.5]octane], the concentration at 0.5 h in data set [1] (Aqueous humor in anterior chamber of eye, 30 min. after transocular administration of ophthalmic solution (total 1 mg/rabbit), n = 6) was determined as 141 ± 59.7 ng/g; in data set [1] (Cornea, 30 min. after transocular administration of ophthalmic solution (2 mg/ml, total 1 mg/rabbit), n = 6), 1.56 ± 0.73 ng/g; in data set [1] (Lens, 30 min. after transocular administration of ophthalmic solution (total 1 mg/rabbit), n = 6), 12.4 ± 2.11 ng/g; in data set [1] (Retinochoroid, 30 min. after transocular administration of ophthalmic solution (total 1 mg/rabbit), n = 6), 40.2 ± 9.4 ng/g; in data set [1] (Sclera, 30 min. after transocular administration of ophthalmic solution (total 1 mg/rabbit), n = 6), 0.78 ± 0.78 ng/g; in data set [1] (Vitreum, 30 min. after transocular administration of ophthalmic solution (total 1 mg/rabbit), n = 6) it was 9.99 ± 2.37 ng/g. In addition, in data set [1] (Whole blood (n = 3), 30 min. after transocular administration of ophthalmic solution (total 1 mg/rabbit)), the concentration at 0.5 h came out at 19.6 ± 4.22 ng/g. Moreover, the concentration at 120 h in data set [2] (Aqueous humor in anterior chamber of eye, Day 5 of continuous subcutaneous administration (2.5 mg/rabbit/day), n = 6) was 0.79 ± 0.62 ng/g; in data set [2] (Cornea, Day 5 of continuous subcutaneous administration (2.5 mg/rabbit/day) by mini-pump, n = 6), 2.87 ± 0.52 ng/g; in data set [2] (Lens, Day 5 of continuous subcutaneous administration (2.5 mg/rabbit/day), n = 6), 0.2 ± 0.08 ng/g; in data set [2] (Retinochoroid, Day 5 of continuous subcutaneous administration (2.5 mg/rabbit/day), n = 6), 0.6 ± 0.26 ng/g; in data set [2] (Sclera, Day 5 of continuous subcutaneous administration (2.5 mg/rabbit/day), n = 6), 1.06 ± 0.27 ng/g; in data set [2] (Vitreum, Day 5 of continuous subcutaneous administration (2.5 mg/rabbit/day), n = 6), 1.19 ± 0.23 ng/g. Besides, the concentration at 120 h in data set [2] (Whole blood, Day 5 (n=3), continuous subcutaneous administration (2.5 mg/rabbit/day)) was 22.5 ± 4.12 ng/g. Further, the concentration at 24 h in data set [2] (Whole blood, Day 1 (n=3), continuous subcutaneous administration (2.5 mg/rabbit/day)) was determined as 30.6 ± 6.13 ng/g. For the same molecule, the concentration at 96 h in data set [2] (Whole blood, Day 4 (n=3), continuous subcutaneous administration (2.5 mg/rabbit/day)) worked out at 13.7 ± 9.74 ng/g. For the same molecule, in data set [3], the “eyeballs in which intraocular vascularization was suppressed thoroughly” value is 42.9%. For the same molecule, the “eyeballs in which the vascularization was suppressed partially or thoroughly” value in data set [3] is 85.7%.
